One data set concerns COLO 205. Nature of the data set: Antiproliferative activity against human COLO205 cells after 96 hrs by celltiter 96 assay. The conditions noted are these: COLO 205, 96 h. The data set is classed as functional, cell-based.
Another data set concerns the target Histone deacetylase 1 (Homo sapiens, UniProt Q13547).
A further data set concerns A2780. As to the kind of experiment: Antiproliferative activity against human A2780 cells after 96 hrs by celltiter 96 assay. The data set is classed as functional, cell-based. The following applies: A2780, 96 h.
Another data set deals with PC-3. Nature of the data set: Antiproliferative activity against human PC3 cells after 96 hrs by celltiter 96 assay. The data set is classed as functional, cell-based. The conditions noted are these: PC-3, 96 h.
In a further data set the test system is HCT-116. Nature of the data set: Antiproliferative activity against human HCT116 cells after 96 hrs by celltiter 96 assay. The data set is classed as functional, cell-based. The conditions noted are these: HCT-116, 96 h.
Data set [1] in a line: Half life in human liver microsomes. The data set is classed as ADME, Microsome. Background: Microsomes from liver hold many membrane-bound enzymes, among them those of drug oxidation.
Data set [2] can be described thus: Half life in mouse liver microsomes. The data set is classed as ADME, Microsome. The following applies: liver microsomes.

In ChEMBL document CHEMBL1828590 (J Med Chem, 2011) one finds IC50 and half-life data, which are given here for 37 compounds.

Chain of Histone deacetylase 1 (Q13547 whole entry): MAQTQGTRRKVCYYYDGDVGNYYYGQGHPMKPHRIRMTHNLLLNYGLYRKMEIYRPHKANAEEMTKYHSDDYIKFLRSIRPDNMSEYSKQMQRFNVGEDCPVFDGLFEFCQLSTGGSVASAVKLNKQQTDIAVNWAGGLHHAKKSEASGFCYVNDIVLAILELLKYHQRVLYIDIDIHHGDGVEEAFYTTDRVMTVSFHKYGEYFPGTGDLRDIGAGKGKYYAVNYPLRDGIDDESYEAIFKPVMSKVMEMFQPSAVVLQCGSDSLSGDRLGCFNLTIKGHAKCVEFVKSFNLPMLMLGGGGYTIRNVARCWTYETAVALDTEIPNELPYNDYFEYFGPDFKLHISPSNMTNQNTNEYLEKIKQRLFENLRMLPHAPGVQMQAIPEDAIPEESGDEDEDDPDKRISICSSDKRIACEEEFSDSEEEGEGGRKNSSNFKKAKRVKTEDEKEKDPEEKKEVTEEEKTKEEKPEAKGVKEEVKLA
Description for Histone deacetylase 1: Inhibition of full length recombinant HDAC1 using Fluor de Lys as substrate by fluorescence assay

With `CCCCc1nc2cc(/C=C/C(=O)NO)ccc2n1C1CCCNC1` (stereo not given), the IC50 came out at 4870 nM in the data set on COLO 205 and 190 nM against Histone deacetylase 1.
In the same order, the values of `CCCCCCc1nc2cc(/C=C/C(=O)NO)ccc2n1C1CCNC1` (stereo not given) are 1460 nM and 41 nM.
Turning to `CCN(CC)CCn1c(CC(C)C)nc2cc(/C=C/C(=O)NO)ccc21`, the IC50 in the data set with A2780 stood at 1240 nM; in the data set on COLO 205 it was 810 nM; with PC-3 it was 950 nM; on Histone deacetylase 1, 92 nM; with HCT-116 it was 1300 nM.
As for `CCCCc1nc2cc(/C=C/C(=O)NO)ccc2n1CCN(C)C(C)C`, the IC50 with COLO 205 stood at 540 nM; on Histone deacetylase 1, 45 nM.
On to `CCCCCc1nc2cc(/C=C/C(=O)NO)ccc2n1C1CCCN(C)C1` (stereo not given), for which the results for the IC50 with COLO 205 and against Histone deacetylase 1 were 2100 nM and 158 nM, respectively.
In the case of `CCCCc1nc2cc(/C=C/C(=O)NO)ccc2n1CCN(C(C)C)C(C)C`, the figures for the IC50 with COLO 205 and against Histone deacetylase 1 were 1870 nM and 335 nM, respectively.
With `CCCCCc1nc2cc(/C=C/C(=O)NO)ccc2n1CCNC`, the IC50 worked out at 950 nM with COLO 205 and 41 nM against Histone deacetylase 1.
For the compound `CCN(CC)CCn1c(CC2CC3CCC2C3)nc2cc(/C=C/C(=O)NO)ccc21` (stereo not given), the IC50 in the data set with A2780 was found to be 210 nM; in the data set with COLO 205, 390 nM; with PC-3, 530 nM; against Histone deacetylase 1, 32 nM; with HCT-116 it was 330 nM.
As to `CCCCCc1nc2cc(/C=C/C(=O)NO)ccc2n1CCN(C)CC`, the IC50 in the data set on COLO 205 stood at 450 nM; at Histone deacetylase 1 it was 41 nM.
For `NCCn1c(C2CC2c2ccccc2)nc2cc(/C=C/C(=O)NO)ccc21` (stereo not given), the values for the IC50 in the data set on COLO 205 and against Histone deacetylase 1 were 4530 nM and 84 nM, respectively.
The matching figures for `CCCCCCc1nc2cc(/C=C/C(=O)NO)ccc2n1CCN(CC)CC`: 420 nM and 45 nM.
With `CCCCc1nc2cc(/C=C/C(=O)NO)ccc2n1CCN(C)C`, the values for the IC50 with COLO 205 and against Histone deacetylase 1 were 650 nM and 90 nM, respectively.
The matching figures for `CCCCCCc1nc2cc(/C=C/C(=O)NO)ccc2n1CCNC`: 550 nM and 29 nM.
The matching figures for `CCN(CC)CCn1c(C2CC2c2ccccc2)nc2cc(/C=C/C(=O)NO)ccc21` (trans isomer): 630 nM and 169 nM.
As to `CCCCc1nc2cc(/C=C/C(=O)NO)ccc2n1CCNCC`, the concentration for half-maximal inhibition (IC50) with A2780 turned out to be 760 nM; with COLO 205, 880 nM; in the data set with PC-3, 380 nM; at Histone deacetylase 1, 77 nM; with HCT-116 it was 1110 nM.
On to `CCCCCCCCc1nc2cc(/C=C/C(=O)NO)ccc2n1CCNC`, for which the values for the IC50 in the data set on COLO 205 and on Histone deacetylase 1 were 230 nM and 15 nM, respectively.
Regarding `CCCc1nc2cc(/C=C/C(=O)NO)ccc2n1CCN(CC)CC`, the IC50 is 980 nM with COLO 205 and 155 nM at Histone deacetylase 1.
With `CCCCc1nc2cc(/C=C/C(=O)NO)ccc2n1C1CCNCC1`, the IC50 in the data set with COLO 205 came to 7000 nM.
Regarding `CCN(CC)CCc1nc2cc(/C=C/C(=O)NO)ccc2n1CCC(C)C`, the IC50 in the data set with COLO 205 is 6810 nM; on Histone deacetylase 1, 575 nM.
The matching figures for `CC(C)c1nc2cc(/C=C/C(=O)NO)ccc2n1CC(C)(C)CN(C)C`: 1730 nM and 308 nM.
Turning to `CCN(CC)CCn1c(CC(C)(C)C)nc2cc(/C=C/C(=O)NO)ccc21`, the IC50 was found to be 1190 nM in the data set with COLO 205 and 135 nM on Histone deacetylase 1.
`CCCCc1nc2cc(/C=C/C(=O)NO)ccc2n1CC(C)(C)CN(C)C`: the IC50 is 2230 nM in the data set on COLO 205 and 150 nM on Histone deacetylase 1.
Turning to `CCCCCCc1nc2cc(/C=C/C(=O)NO)ccc2n1C1CCCNC1` (stereo not given), the values for the IC50 in the data set with COLO 205 and on Histone deacetylase 1 were 1340 nM and 105 nM, respectively.
In the same order, the values of `CCCCc1nc2cc(/C=C/C(=O)NO)ccc2n1CCC(C)C` are 6020 nM and 2490 nM.
With `CCN(CC)CCn1c(CCc2ccccc2)nc2cc(/C=C/C(=O)NO)ccc21`, the half-life was no less than 30 min in data set [1] and 5 min in data set [2].
On to `CN(C)CC(C)(C)Cn1c(C2CCCCC2)nc2cc(/C=C/C(=O)NO)ccc21`, for which the IC50 in the data set on COLO 205 came to 2450 nM; against Histone deacetylase 1, 421 nM.
The matching figures for `CCCCc1nc2cc(/C=C/C(=O)NO)ccc2n1C1CCNC1` (stereo not given): 16400 nM and 110 nM.
In the same order, the values of `CCCCCCCCc1nc2cc(/C=C/C(=O)NO)ccc2n1CCN` are 540 nM and 22 nM.
On to `CC/C=C\CCc1nc2cc(/C=C/C(=O)NO)ccc2n1CC(C)(C)CN(C)C`, for which the IC50 worked out at 370 nM in the data set on A2780; 620 nM in the data set on COLO 205; 380 nM in the data set with PC-3; 53 nM on Histone deacetylase 1; 920 nM in the data set with HCT-116.
Consider `CCCCCc1nc2cc(/C=C/C(=O)NO)ccc2n1CCNCC`, for which the IC50 in the data set on COLO 205 is 420 nM; at Histone deacetylase 1 it was 27 nM.
In the same order, the values of `CCCCc1nc2cc(/C=C/C(=O)NO)ccc2n1CCCNC(C)C` are 2890 nM and 165 nM.
The matching figures for `CN(C)CCn1c(C2CC2c2ccccc2)nc2cc(/C=C/C(=O)NO)ccc21` (stereo not given): 690 nM and 175 nM.
In the same order, the values of `CCCCc1nc2cc(/C=C/C(=O)NO)ccc2n1C1CCN(C)C1` (stereo not given) are 1090 nM and 125 nM.
On to `CC(C)Cc1nc2cc(/C=C/C(=O)NO)ccc2n1CC(C)(C)CN(C)C`, for which the figures for the IC50 with COLO 205 and against Histone deacetylase 1 were 2690 nM and 175 nM, respectively.
With `CCNCCn1c(CC(C)CC(C)(C)C)nc2cc(/C=C/C(=O)NO)ccc21` (stereo not given), the IC50 was 140 nM in the data set with A2780; 140 nM with COLO 205; 100 nM in the data set with PC-3; 23 nM at Histone deacetylase 1; 270 nM in the data set on HCT-116.
Take `CC(Cc1nc2cc(/C=C/C(=O)NO)ccc2n1CC(C)(C)CN(C)C)CC(C)(C)C` (stereo not given): the IC50 with A2780 was 230 nM; in the data set on COLO 205 it was 150 nM; in the data set on PC-3 it was 310 nM; at Histone deacetylase 1 it was 37 nM; in the data set with HCT-116, 410 nM.
In turn, `CCCCc1nc2cc(/C=C/C(=O)NO)ccc2n1CCN(C)CC` returned an IC50 in the data set with COLO 205 of 1650 nM.

In general, IC50 refers to the concentration at which inhibition is half-maximal. The term half-life denotes how long it takes for the measured level to halve. A low value points to fast loss.
